Test results reported in ChEMBL document CHEMBL1152390, “Macrophyllin-type bicyclo[3.2.1]octanoid neolignans from the leaves of Pleurothyrium cinereum” (J Nat Prod, 2009).
pIC50: −log10 of the molar value.

How the values were obtained:
[1] = Antiplatelet activity in rabbit platelets assessed as inhibition of PAF-induced platelet aggregation treated 5 mins before PAF challenge; format: functional, cell-based; details: Oryctolagus cuniculus
[2] = test system: Mycobacterium tuberculosis; test: Antituberculosis activity against Mycobacterium tuberculosis H37Rv assessed as parasite growth inhibition at 100 ug/ml after 4 days by microplate alamar blue assay; format: functional; details: 96 h, read-out: GI
[3] = test system: Mycobacterium tuberculosis; test: Antituberculosis activity against Mycobacterium tuberculosis H37Rv assessed as parasite growth inhibition at 50 ug/ml after 4 days by microplate alamar blue assay; format: functional; details: 96 h, read-out: GI
[4] = test system: Mycobacterium tuberculosis; test: Antituberculosis activity against Mycobacterium tuberculosis H37Rv assessed as parasite growth inhibition at 25 ug/ml after 4 days by microplate alamar blue assay; format: functional; details: 96 h, read-out: GI
Staphylococcus aureus = test: Antibacterial activity against Staphylococcus aureus ATCC 65380 by radial diffusion assay; format: functional
Enterococcus faecalis = test: Antibacterial activity against Enterococcus faecalis ATCC 29212 by radial diffusion assay; format: functional
Escherichia coli = test: Antibacterial activity against Escherichia coli ATCC 25922 by radial diffusion assay; format: functional
[5] = test system: Salmonella enterica subsp. enterica; test: Antibacterial activity against Salmonella Typhimurium ATCC 14028s by radial diffusion assay; format: functional, Salmonella enterica subsp. enterica serovar Typhimurium
[6] = test system: Salmonella enterica subsp. enterica; test: Antibacterial activity against Salmonella Typhimurium MS 7953 by radial diffusion assay; format: functional, Salmonella enterica subsp. enterica serovar Typhimurium
[7] = test system: Salmonella enterica subsp. enterica; test: Antibacterial activity against Salmonella Typhimurium EG10627 by radial diffusion assay; format: functional, Salmonella enterica subsp. enterica serovar Typhimurium

SMILES | pIC50 [1] | inhibition of growth at 100 µg/mL [2] [%] | inhibition of growth at 50 µg/mL [3] [%] | inhibition of growth at 25 µg/mL [4] [%] | growth inhibition (GI) (Staphylococcus aureus) [%] | growth inhibition (GI) (Enterococcus faecalis) [%] | growth inhibition (GI) (Escherichia coli) [%] | growth inhibition (GI) [5] [%] | growth inhibition (GI) [6] [%] | growth inhibition (GI) [7] [%]
C=CCC1=C[C@@]2(OC)C(=CC1=O)O[C@H](c1ccc(OC)c(OC)c1)[C@H]2C [KADSURENONE] | 6.92 |  |  |  |  |  |  |  |  | 
C=CCC1=C[C@]2(OC)[C@H](C)[C@@H](c3cc(OC)c4c(c3)OCO4)[C@](OC)(C1=O)[C@H]2O [CINERIN C] | 5.96 | 49.4 | 49.8 | 43.8 | <30 | <30 | <30 | <30 | <30 | <30
C=C1C[C@@]23CC[C@H]4[C@@](C)(CCC[C@@]4(C)C(=O)O)[C@@H]2CC[C@@H]1C3 [KAURENOIC ACID] |  | 94.2 | 91.3 | 88.6 | <30 | <30 | <30 | <30 | <30 | <30
C=CCC1=C[C@]2(OC)C(=O)[C@@](OC)(C1=O)[C@H](c1cc(OC)c3c(c1)OCO3)[C@H]2C [CINERIN A] | 4.77 | 8.1 | 7.2 | 2.5 | <30 | <30 | <30 | <30 | <30 | <30
C=CCC1=C[C@@]2(OC)C(=O)[C@](OC)([C@H](c3cc(OC)c4c(c3)OCO4)[C@H]2C)[C@H]1O [CINERIN D] | 5.18 | 7.3 | 6.2 | 1.3 | <30 | <30 | <30 | <30 | <30 | <30
CO[C@H]1/C=C/O[C@@]2(C)Oc3c(C)c(O)c4c(O)c(c(/C=N/N5CCN(C)CC5)c(O)c4c3C2=O)NC(=O)/C(C)=C\C=C\[C@H](C)[C@H](O)[C@@H](C)[C@@H](O)[C@@H](C)[C@H](OC(C)=O)[C@@H]1C [RIFAMPIN] |  |  |  | 97.6 |  |  |  |  |  | 
C=CCC1=C[C@@]2(OC)[C@H](C)[C@@H](c3cc(OC)c4c(c3)OCO4)[C@H](C1=O)[C@@H]2O [CINERIN B] | 5.82 | 19.5 | 20.9 | 13.9 | <30 | <30 | <30 | <30 | <30 | <30
C[C@@H]1C(=O)O[C@H]2[C@H](O)[C@@]34[C@H]5C[C@@H](C(C)(C)C)[C@]36[C@@H](OC(=O)[C@@H]6O)O[C@@]4(C(=O)O5)[C@@]12O [GINKOLIDE B] | 6.03 |  |  |  |  |  |  |  |  | 
NNC(=O)c1ccncc1 [ISONIAZID] |  |  |  | 94.2 |  |  |  |  |  | 
